Data as given in PubChem BioAssay AID179 (DTP/NCI, 2004).
“And” between values parts separate entries of the source, which are not always exact repeats. Identical values can stand only once. The source made the active and inactive calls.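 Rule for the calls: active = compounds giving half or more protection of infected cells from virus-caused growth loss, again on retest; inactive = the rest.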

Tested on: CEM cells HIV-1 protection, formazan growth assay
Experiment: NCI AIDS Antiviral Assay
Conditions: for IC50: measured here: growth of uninfected CEM cells
Procedure: The ability of compounds to protect human CEM cells from HIV-1 infection is measured as a screen for new compounds capable of inhibiting the HIV virus. Five concentrations of drug were tested on uninfected and infected cells and cell growth was measured using a soluble formazan assay. […] Compounds that provided at least 50% protection were retested. Compounds that provided at least 50% protection on retest were listed as moderately active. Compounds that reproducibly provided 100% protection were listed as confirmed active. […] Note that the inability to provide protection could be due to toxicity.

Row | SMILES | EC50 [µM] | IC50 | outcome
1 | CC(=O)Oc1ccc2c3c4nc5ccccc5nc4cc(OC(C)=O)c3n(C)c2c1 | > 5.01 | > 5.01 µM | –
2 | COc1ccc(-c2oc3cc(OC)ccc3c(=O)c2O)cc1 | > 200 | > 200 µM | –
3 | BrCCCCCOc1ccc(-c2c3ccccc3c(-c3ccc(OCCCCCBr)cc3)c3ccccc23)cc1 | > 100 | > 100 µM | –
4 | CN(C)/C=N\c1nncc2[nH]cnc12 | > 200 | 15.1 µM | –
5 | OC(c1cccs1)c1cc2ccccc2s1 (stereo not given) | > 200 | 117 µM | –
6 | Cc1ccc(/C=C(/C(=O)c2ccccc2)c2ccccc2)cc1 | > 4.9 | > 4.9 µM | –
7 | CC1(C)SC2c3ccccc3C(=O)N2C1C(=O)O (stereo not given) | > 955 | > 955 µM | –
8 | C=CCNC(=S)N/C=C\c1c(C(=O)O)cc([N+](=O)[O-])cc1[N+](=O)[O-] | > 200 | > 100 µM | –
9 | O=[N+]([O-])C(/C(Cl)=C(\Cl)Br)=C(/Cl)SCc1ccccc1 | > 200 | 1.78 µM | –
10 | C/C=C/C(C1=C(O)c2ccccc2C(=O)C1=O)C1=C(O)c2ccccc2C(=O)C1=O | > 200 | 83.2 µM | –
11 | CC1=Nc2nc3ccccc3n2C(C)(C)C1 | > 174 | 112 µM | –
12 | COc1c(Cl)cc(C(=CCCCCN(C(=O)C=C(c2cc(Cl)c(OC)c(C(=O)O)c2)c2cc(Cl)c(OC)c(C(=O)O)c2)[C@H]2CC[C@@]3(C)[C@@H](CC[C@@H]4[C@@H]3CC[C@]3(C)[C@@H](C(C)CCCC(C)C)CC[C@@H]43)C2)c2cc(Cl)c(OC)c(C(=O)O)c2)cc1C(=O)O (stereo not given in full) | 12.9 | 81.3 µM | –
13 | Cn1cnc(N)c1S(N)(=O)=O | > 1410 | > 1410 µM | –
14 | Cc1ccc(C(=O)/C=C2/SS/C(=C/C(=O)c3ccc(C)cc3)S2)cc1 | > 200 | > 200 µM | –
15 | C#Cc1cccc(NC(=O)/C=C\C(=O)O)c1 | > 832 | 537 µM | –
16 | O=S(=O)(O)c1ccc(NNc2ccc(S(=O)(=O)O)cc2)cc1 | – | – | inactive
17 | COc1cc(/C=C/C(=O)c2sc(NNC(C)=O)nc2C)ccc1O | > 20.9 | > 20.9 µM | –
18 | CC(C)N(CC(OC(=O)OC(C)(C)C)c1cc(OCc2ccccc2)c(OCc2ccccc2)cc1[N+](=O)[O-])C(=O)OC(C)(C)C (stereo not given) | > 100 | 30.2 µM | –
19 | [N-]=[N+]=Nc1cc(=O)oc2ccccc12 | > 200 | 117 µM | –
20 | c1ccc(C2(c3ccccc3)OCCO2)cc1 | > 200 | > 200 µM | –
21 | NC(=O)C(Cc1ccccc1)NC(=O)c1ccccc1SC(=O)CCCC[n+]1ccccc1 (stereo not given) | > 200 | 4.47 µM | –
22 | CC(C)(C)OC(=O)c1ccc(NCc2cc(O)ccc2O)cc1 | > 200 | 3.16 µM | –

Row | SMILES | EC50 [µM] | IC50 | outcome
23 | COc1ccc(C(C(N)=O)N2CCCC2)cc1 (stereo not given) | > 200 | > 200 µM | –
24 | O=c1c2ccccc2nc(-c2ccccc2)n1NC(=S)Nc1ccc(Cl)cc1[N+](=O)[O-] | > 15.8 | > 15.8 µM | –
25 | Oc1cc(OCCCc2ccc(F)cc2)cc2ccc3ccccc3c12 | > 55 | 31.6 µM | –
26 | CCN(CC)CCn1ncc2ccc3c(c(=O)c4cccnc4n3CCN(CC)CC)c21 | > 20 | 0.309 µM | –
27 | CC(C)NC(=O)OCc1c(COC(=O)NC(C)C)c(-c2ccc(Cl)c(Cl)c2)n2c1CCC2 | > 7.41 | 4.47 µM | –
28 | CC1(C)CCC[C@]2(C)c3occc3CCC12 (stereo not given in full) | – | – | inactive
29 | NNC(=O)CC(=O)N(C(=O)c1ccccc1)c1ccc(Cl)cc1 | > 200 | > 200 µM | –
30 | O=Nc1ccc(N=O)cc1 | > 200 | > 200 µM | –
31 | CC(C)(C)C1=CC(=Nc2c([N+](=O)[O-])cc([N+](=O)[O-])cc2[N+](=O)[O-])C=C(C(C)(C)C)C1=O | > 11.5 | > 11.5 µM | –
32 | O=C(O)/C=C/c1ccccc1[N+](=O)[O-] | > 257 | > 257 µM | –
33 | c1ccc2c(c1)N[C@@H]1c3[nH]c4ccccc4c3CC[C@H]21 | > 200 | 24.5 µM | –
34 | CCOC(=O)C1=C(c2ccccc2)C12N(Cc1ccccc1)C(=O)C2(c1ccccc1)c1ccccc1 (stereo not given) | > 200 | 11 µM | –
35 | COC(=O)C1(Cc2ccccc2)Cc2cc3c(cc2C1=O)CCC3 (stereo not given) | > 200 | 85.1 µM | –
36 | N#Cc1ccc(N(O)C(=O)c2ccccc2)cc1 | > 200 | 46.8 µM | –
37 | CC(C)=CCC/C(C)=C/COC(=O)N(c1ccccc1)c1ccccc1 | > 200 | > 200 µM | –
38 | COc1ccc(NC(=O)/C(=C\N2C(=O)CC(=O)NC2=S)C(C)=O)cc1 | > 200 | 25.7 µM | –
39 | O=S(=O)(O)OC1CCCCC1Nc1ccccc1 (stereo not given) | – | – | inactive
40 | COC(=O)c1ccc(CO/N=C(\c2ccccc2)c2ccncc2)cc1 | > 200 | 66.1 µM | –
41 | Cc1ccc(N=Nc2c(N)nn3cc4c(nc23)-c2ccccc2CC4)cc1 | > 100 | > 100 µM | –
42 | CN(C)Cc1cc(C(=O)/C=C/c2ccc([N+](=O)[O-])cc2)cc(CN(C)C)c1O | > 200 | 2.82 µM | –
43 | CCOC(C[C@H](O)[C@H]1COC(=S)S1)OCC | 135 | > 200 µM | –
44 | CCOC(=N)n1c(=O)n(C2=NCCN2)c2ccccc21 | > 200 | 123 µM | –

Row | SMILES | EC50 [µM] | IC50 | outcome
45 | O=C1NCN(c2ccccc2)C12CCN(CCCSc1ccc(F)cc1)CC2 | > 200 | 18.2 µM | –
46 | O=S1(=O)c2ccccc2N(O)C2=NCCN21 | > 550 | 91.2 µM | –
47 | O=C(/C=C/c1ccccc1)c1cc(CN2CCOCC2)c(O)c(CN2CCOCC2)c1 | > 200 | 8.51 µM | –
48 | COc1cc(CC2c3cc(OC)c(OC)cc3CCN2C)c(C(=O)O)cc1OC (stereo not given) | – | – | inactive
49 | C(=Nc1cnc2ccccc2c1)c1cccnc1 | > 1070 | 195 µM | –
50 | NC(=O)c1ncn2c1CNC(=O)C2 | > 200 | > 200 µM | –
51 | CCOP(=O)(OCC)C(N)C(C)C (stereo not given) | > 513 | > 513 µM | –
52 | O=[N+]([O-])C(/C=C(\Cl)n1nnc2ccccc21)=C(/Cl)n1nnc2ccccc21 | > 200 | > 200 µM | –
53 | N#Cc1cc(Sc2ccc(N)c(C#N)c2)ccc1N | > 200 | 11 µM | –
54 | CC1(O)Oc2ccc3ccccc3c2C=C1C(N)=O (stereo not given) | > 200 | 182 µM | –
55 | CCCCCCC(O)CCCCCCCCCCC(=O)OCC(COC(=O)CCCCCCCCCCC(O)CCCCCC)OC(=O)CCCCCCCCCCC(O)CCCCCC (stereo not given) | > 100 | > 100 µM | –
56 | c1cc2c(cc1NC1=NCCO1)CCCC2 | > 200 | 1.55 µM | –
57 | N[C@@H](CSS[C@H](C(=O)O)[C@@H](SSC[C@H](N)C(=O)O)C(=O)O)C(=O)O | > 200 | 35.5 µM | –
58 | CCOC(=O)c1c[nH]cc1-c1cn(S(=O)(=O)c2ccccc2)cc1C | > 200 | 50.1 µM | –
59 | CC(C)(C)[Si](C)(C)OCC1OC(n2cc(I)c(N)nc2=O)C(O[Si](C)(C)C(C)(C)C)C1O[Si](C)(C)C(C)(C)C (stereo not given) | > 200 | 6.76 µM | –
60 | CC1C(=O)CC2C3(C)CCC2(C(C)C(=O)O)C(=O)C13 (stereo not given) | > 275 | 224 µM | –
61 | N#CC(NNC(=O)c1ccccc1O)c1cccc(O)c1 (stereo not given) | > 6.31 | 0.562 µM | –
62 | CC1(C)C(=NNC(=O)C[N+](C)(C)C)C(C)(C)C1=NNC(=O)C[N+](C)(C)C | > 28.8 | > 28.8 µM | –
63 | C(=C(\C[P+](c1ccccc1)(c1ccccc1)c1ccccc1)c1ccccc1)/c1ccccc1 | > 200 | 1 µM | –
64 | O=C(Cc1ccccc1)NN1C(=O)/C(=C\c2cccc([N+](=O)[O-])c2)SC1=Nc1ccccc1 | > 56.2 | > 56.2 µM | –
65 | c1ccc(COc2ccc3[nH]c4c(ncc5[nH]c6ccccc6c54)c3c2)cc1 | – | – | inactive
66 | CC(Cn1c2c(c3cc(O)ccc31)CCc1ccc(O)cc1-2)N(C)C (stereo not given) | > 200 | 12 µM | –

Row | SMILES | EC50 [µM] | IC50 | outcome
67 | O=C1CCCC1CN1CCCC1 (stereo not given) | – | – | inactive
68 | CCCCOC(=O)N[C@H]1CCc2cc(OC)c(OC)c(OC)c2-c2ccc(SC)c(=O)cc21 | > 0.2 | 0.00407 µM | –
69 | CCOC(=O)C#CC(=O)OCC | > 200 | 15.1 µM | –
70 | Clc1ccc(C2ON=C(c3ccccc3)N2C23CC4CC(CC(C4)C2)C3)cc1 (stereo not given) | > 200 | > 200 µM | –
71 | Cc1ccccc1N1C(=O)CC2(CCCC2)C1=O | > 363 | 214 µM | –
72 | CC(=O)OCC1OC(n2c3c(cc(C#N)c2=S)CCCC3)C(OC(C)=O)C(OC(C)=O)C1OC(C)=O (stereo not given) | > 200 | 87.1 µM and > 200 µM | –
73 | CC(C)/C(Cl)=N\OC(=O)Nc1ccc(F)cc1 | – | – | inactive
74 | Cn1c(COC(=O)NC2CCCCC2)c(COC(=O)NC2CCCCC2)c2ccc3cc(C=O)ccc3c21 | > 174 | 2.19 µM | –
75 | O=C(O)c1ccc(P(=O)(O)c2ccc(C(=O)O)cc2Br)c(Br)c1 | > 200 | > 200 µM | –
76 | CCOC(=O)N/N=C(/N)Cc1ccccc1 | > 200 | > 200 µM | –
77 | COc1cc(C2SC(N)=Nc3c2c(C)nn3C(=O)Cc2ccccc2)ccc1O (stereo not given) | 70.8 | > 200 µM | –
78 | COc1cc(C)c(C(=O)Oc2cc(C)c(C(=O)O)c(O)c2C)c(OC)c1C | > 200 | 70.8 µM | –
79 | CSCCC(N)P(C)(=O)O (stereo not given) | > 200 | > 200 µM | –
80 | Cc1[nH]n(-c2ccccc2)c(=O)c1C=NC(=S)C(N)=S | > 200 | 56.2 µM | –
81 | C/C(=C\c1ccccc1)C(O)S(=O)(=O)O (stereo not given) | – | – | inactive
82 | CCOC(=O)C1(Br)C(c2ccccc2)NC(=O)NC1(C)Br (stereo not given) | > 85.1 | > 85.1 µM | –
83 | CCOC(=O)C1=C(Nc2ccc(Cl)c(Cl)c2)OC/C1=N\NC(=O)Cc1ccccc1 | > 100 | > 100 µM | –
84 | CC(CN(C)C)OC(=O)c1cc2ccccc2[nH]1 (stereo not given) | > 200 | > 200 µM | –
85 | O=C(O)C(=C\c1ccc2c(c1)OCO2)/C(=C/c1ccc2c(c1)OCO2)C(=O)O | – | – | inactive
86 | c1ccc(-c2c(-c3ccccc3)c2=NN(c2ccccc2)c2ccccc2)cc1 | > 200 | 11 µM | –
87 | CC(=O)OCC1OC(OCCCCCCO)C(OC(C)=O)C(OC(C)=O)C1OC(C)=O (stereo not given) | > 200 | > 200 µM | –
